Assay type in all cases: biochemical
In one test the target is T1, JAK3 (Homo sapiens, UniProt P52333).
T1 sequence (P52333 1-1124): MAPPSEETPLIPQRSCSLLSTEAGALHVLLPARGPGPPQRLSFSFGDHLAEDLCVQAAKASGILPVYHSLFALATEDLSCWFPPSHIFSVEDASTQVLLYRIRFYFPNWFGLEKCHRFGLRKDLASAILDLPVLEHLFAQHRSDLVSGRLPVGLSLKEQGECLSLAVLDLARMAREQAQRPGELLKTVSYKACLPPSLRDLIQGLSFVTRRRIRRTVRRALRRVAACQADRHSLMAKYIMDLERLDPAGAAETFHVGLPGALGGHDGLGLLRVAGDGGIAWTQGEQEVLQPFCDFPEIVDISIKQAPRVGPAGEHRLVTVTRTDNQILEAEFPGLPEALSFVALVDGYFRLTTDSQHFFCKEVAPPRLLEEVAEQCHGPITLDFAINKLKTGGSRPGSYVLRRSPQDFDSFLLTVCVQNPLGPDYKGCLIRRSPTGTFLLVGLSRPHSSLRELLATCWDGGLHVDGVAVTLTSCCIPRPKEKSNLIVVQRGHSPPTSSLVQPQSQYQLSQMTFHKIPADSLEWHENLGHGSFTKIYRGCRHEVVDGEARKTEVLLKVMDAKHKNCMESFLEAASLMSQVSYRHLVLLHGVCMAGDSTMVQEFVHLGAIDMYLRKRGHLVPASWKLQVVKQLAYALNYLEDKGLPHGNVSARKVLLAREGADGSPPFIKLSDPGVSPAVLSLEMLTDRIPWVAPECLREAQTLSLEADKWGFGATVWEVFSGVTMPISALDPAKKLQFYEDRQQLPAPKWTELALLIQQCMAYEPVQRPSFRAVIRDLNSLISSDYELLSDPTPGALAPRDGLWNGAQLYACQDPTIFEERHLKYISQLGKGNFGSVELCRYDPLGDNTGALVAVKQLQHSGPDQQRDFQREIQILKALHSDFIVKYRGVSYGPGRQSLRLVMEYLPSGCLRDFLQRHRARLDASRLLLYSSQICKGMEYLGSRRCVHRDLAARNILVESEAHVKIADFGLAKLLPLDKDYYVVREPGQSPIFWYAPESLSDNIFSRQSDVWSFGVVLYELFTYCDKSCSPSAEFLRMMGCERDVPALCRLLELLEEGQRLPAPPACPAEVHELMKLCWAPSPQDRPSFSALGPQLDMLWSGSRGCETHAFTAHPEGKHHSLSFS
Description: Inhibition of a panel of kinases, in vitro HotSpot kinase assay: JAK3. To be noted: D-compounds panel data; 1 μM ATP; read-out: IC50 JAK3.

The target in another test is LCK (Homo sapiens, UniProt P06239). In words: Inhibition of a panel of kinases, in vitro HotSpot kinase assay: LCK. To be noted: D-compounds panel data; 1 μM ATP; read-out: IC50 LCK.
The next test addresses T2, ITK (Homo sapiens, UniProt Q08881).
T2 sequence (Q08881 1-620): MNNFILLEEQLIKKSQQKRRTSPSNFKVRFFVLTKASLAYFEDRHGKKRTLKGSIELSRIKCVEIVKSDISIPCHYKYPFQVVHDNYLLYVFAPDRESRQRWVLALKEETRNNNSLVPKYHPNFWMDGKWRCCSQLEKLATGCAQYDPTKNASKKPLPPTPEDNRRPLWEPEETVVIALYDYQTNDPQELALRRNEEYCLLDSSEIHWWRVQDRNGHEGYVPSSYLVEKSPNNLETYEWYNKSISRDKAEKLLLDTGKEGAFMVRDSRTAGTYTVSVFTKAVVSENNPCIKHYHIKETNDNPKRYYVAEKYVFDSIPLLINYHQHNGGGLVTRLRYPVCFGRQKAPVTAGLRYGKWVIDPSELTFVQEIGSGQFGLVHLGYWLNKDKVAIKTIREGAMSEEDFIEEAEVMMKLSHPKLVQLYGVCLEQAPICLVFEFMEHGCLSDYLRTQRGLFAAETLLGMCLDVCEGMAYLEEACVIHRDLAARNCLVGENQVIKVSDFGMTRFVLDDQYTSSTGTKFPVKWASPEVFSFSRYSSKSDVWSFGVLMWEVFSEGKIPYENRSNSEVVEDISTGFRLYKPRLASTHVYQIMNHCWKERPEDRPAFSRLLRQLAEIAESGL
Description: Inhibition of a panel of kinases, in vitro HotSpot kinase assay: ITK. To be noted: D-compounds panel data; 1 μM ATP. As for the experimental part:
(§1) The degree of inhibition of a panel of kinases is determined using the in vitro HotSpot kinase assay (purified enzymes, ^33P-ATP, an appropriate substrate and 1 μM ATP).

The next test deals with EGFR (Homo sapiens, UniProt P00533). Description: Inhibition of a panel of kinases, in vitro HotSpot kinase assay: EGFR. To be noted: D-compounds panel data; 1 μM ATP. The method, then:
as §1

In another test the target is SRC (Homo sapiens, UniProt P12931). In words: Inhibition of a panel of kinases, in vitro HotSpot kinase assay: SRC. To be noted: D-compounds panel data; 1 μM ATP. The method, then: as §1
Another test deals with T3, TEC (Homo sapiens, UniProt P42680).
T3 sequence (P42680 1-631): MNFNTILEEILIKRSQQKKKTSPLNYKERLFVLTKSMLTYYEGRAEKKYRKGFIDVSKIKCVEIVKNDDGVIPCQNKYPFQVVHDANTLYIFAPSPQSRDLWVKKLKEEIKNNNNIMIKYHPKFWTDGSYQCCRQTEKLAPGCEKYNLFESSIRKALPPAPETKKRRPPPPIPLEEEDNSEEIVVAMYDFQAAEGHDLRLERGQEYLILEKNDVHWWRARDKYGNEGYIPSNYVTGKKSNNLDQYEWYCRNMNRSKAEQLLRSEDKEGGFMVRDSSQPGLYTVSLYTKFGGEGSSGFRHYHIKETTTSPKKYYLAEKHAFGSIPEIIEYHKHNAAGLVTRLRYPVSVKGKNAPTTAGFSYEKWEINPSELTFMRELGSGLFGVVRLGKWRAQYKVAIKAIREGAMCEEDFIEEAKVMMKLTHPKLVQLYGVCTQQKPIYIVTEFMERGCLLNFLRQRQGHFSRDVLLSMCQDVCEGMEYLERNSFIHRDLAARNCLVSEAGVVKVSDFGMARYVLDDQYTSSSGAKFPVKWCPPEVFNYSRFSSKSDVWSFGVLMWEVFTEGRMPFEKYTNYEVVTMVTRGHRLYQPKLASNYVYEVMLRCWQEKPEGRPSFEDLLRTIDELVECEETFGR
In words: Inhibition of a panel of kinases, in vitro HotSpot kinase assay: TEC. To be noted: D-compounds panel data; 1 μM ATP. The method, then:
as §1

Bounds are passed on as bounds.

Chain of LCK (P06239 whole entry): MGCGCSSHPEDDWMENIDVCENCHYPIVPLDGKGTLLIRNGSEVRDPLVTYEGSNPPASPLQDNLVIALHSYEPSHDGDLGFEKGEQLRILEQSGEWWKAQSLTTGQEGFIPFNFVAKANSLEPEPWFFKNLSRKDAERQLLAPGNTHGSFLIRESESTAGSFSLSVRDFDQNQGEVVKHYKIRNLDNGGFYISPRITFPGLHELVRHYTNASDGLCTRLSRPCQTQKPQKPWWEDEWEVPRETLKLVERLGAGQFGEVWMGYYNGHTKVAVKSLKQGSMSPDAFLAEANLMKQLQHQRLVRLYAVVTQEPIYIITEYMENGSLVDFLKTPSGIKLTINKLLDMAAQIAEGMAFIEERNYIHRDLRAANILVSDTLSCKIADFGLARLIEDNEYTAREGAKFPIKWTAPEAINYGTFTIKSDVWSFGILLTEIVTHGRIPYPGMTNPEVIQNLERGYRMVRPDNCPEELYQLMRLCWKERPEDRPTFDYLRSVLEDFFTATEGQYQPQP
Chain of SRC (P12931 whole entry): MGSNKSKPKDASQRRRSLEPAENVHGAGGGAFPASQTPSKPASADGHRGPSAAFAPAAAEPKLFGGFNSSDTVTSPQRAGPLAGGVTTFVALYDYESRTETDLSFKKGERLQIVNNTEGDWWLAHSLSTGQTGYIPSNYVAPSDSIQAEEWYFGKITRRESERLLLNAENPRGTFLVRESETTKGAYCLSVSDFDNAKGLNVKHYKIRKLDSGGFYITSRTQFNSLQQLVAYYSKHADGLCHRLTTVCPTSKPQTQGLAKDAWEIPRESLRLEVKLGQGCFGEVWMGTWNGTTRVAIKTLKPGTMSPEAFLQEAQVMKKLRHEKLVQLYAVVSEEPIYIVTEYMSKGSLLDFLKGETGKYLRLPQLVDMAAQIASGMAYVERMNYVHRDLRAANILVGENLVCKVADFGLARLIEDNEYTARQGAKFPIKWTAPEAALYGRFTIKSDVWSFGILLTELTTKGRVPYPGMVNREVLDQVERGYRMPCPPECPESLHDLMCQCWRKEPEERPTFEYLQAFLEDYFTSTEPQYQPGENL
Chain of EGFR (P00533 25-1210): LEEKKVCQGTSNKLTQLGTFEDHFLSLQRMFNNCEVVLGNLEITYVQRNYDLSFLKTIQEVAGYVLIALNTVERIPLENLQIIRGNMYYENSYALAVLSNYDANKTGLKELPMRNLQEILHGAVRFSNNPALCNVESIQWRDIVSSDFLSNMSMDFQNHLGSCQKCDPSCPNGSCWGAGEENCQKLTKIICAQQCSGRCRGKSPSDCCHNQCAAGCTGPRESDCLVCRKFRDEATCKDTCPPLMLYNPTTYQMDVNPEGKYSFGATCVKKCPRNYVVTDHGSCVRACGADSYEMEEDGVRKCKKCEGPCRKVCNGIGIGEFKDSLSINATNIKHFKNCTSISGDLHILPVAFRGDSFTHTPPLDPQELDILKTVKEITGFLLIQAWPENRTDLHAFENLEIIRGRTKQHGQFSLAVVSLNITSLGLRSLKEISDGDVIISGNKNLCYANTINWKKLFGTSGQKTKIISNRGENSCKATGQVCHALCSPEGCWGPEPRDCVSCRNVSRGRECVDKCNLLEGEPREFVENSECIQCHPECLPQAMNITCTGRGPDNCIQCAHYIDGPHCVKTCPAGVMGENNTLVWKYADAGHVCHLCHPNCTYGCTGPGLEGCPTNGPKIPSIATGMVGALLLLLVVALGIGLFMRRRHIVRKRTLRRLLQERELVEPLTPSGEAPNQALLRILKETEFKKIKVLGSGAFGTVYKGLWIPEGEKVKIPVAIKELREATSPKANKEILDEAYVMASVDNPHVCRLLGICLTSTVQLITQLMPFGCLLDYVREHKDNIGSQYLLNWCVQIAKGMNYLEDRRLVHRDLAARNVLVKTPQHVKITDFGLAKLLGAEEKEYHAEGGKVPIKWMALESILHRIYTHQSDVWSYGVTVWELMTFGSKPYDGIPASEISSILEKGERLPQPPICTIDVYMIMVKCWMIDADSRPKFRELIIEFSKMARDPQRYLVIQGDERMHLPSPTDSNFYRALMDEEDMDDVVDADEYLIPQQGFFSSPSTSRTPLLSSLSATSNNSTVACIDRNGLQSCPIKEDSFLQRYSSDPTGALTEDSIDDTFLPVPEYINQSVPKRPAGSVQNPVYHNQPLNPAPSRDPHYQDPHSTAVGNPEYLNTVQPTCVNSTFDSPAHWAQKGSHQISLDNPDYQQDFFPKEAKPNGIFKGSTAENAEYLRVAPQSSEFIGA

With `C[C@@H]1[C@H](NC(=O)c2ccc(C3CC3)cc2)CCCN1c1cnc(C(N)=O)c(Nc2cnn(-c3ccncc3)c2)n1` [Example D-284, 5-[(2R,3R)-3-(4-cyclopropylbenzamido)-2-methylpiperidin-1-yl]-3-{[1-(pyridin-4-yl)-1H-pyrazol-4-yl]amino}pyrazine-2-carboxamide], the IC50 at JAK3 is above 10000 nM; at LCK, 10 to 100 nM; against ITK it was 100 to 1000 nM; on EGFR, above 10000 nM; against SRC, 10 to 100 nM; on TEC, at most 10 nM.

Regarding `C[C@@H]1[C@H](NC(=O)c2ccc(C(C)(C)C)cc2)CCCN1c1cnc(C(N)=O)c(Nc2ccc(OC3CCN(C)CC3)cc2)n1` [Example D-291, 5-[(2R,3R)-3-(4-tert-butylbenzamido)-2-methylpiperidin-1-yl]-3-({4-[(1-methylpiperidin-4-yl)oxy]phenyl}amino)pyrazine-2-carboxamide], the half-maximal inhibitory concentration (IC50) on JAK3 lay within 1000 to 10000 nM; on LCK, 10 to 100 nM; against ITK it was 10 to 100 nM; against EGFR, 100 to 1000 nM; against SRC, 10 to 100 nM; on TEC, 10 to 100 nM.

For the compound `C[C@@H]1[C@H](NC(=O)c2ccc3c(cnn3C)c2)CCCN1c1cnc(C(N)=O)c(Nc2cnn(C)c2)n1` [Example D-254, N-[(2R,3R)-1-{5-carbamoyl-6-[(1-methyl-1H-pyrazol-4-yl)amino]pyrazin-2-yl}-2-methylpiperidin-3-yl]-1-methyl-1H-indazole-5-carboxamide], the half-maximal inhibitory concentration (IC50) at JAK3 is 1000 to 10000 nM; on LCK, 100 to 1000 nM; on ITK, 100 to 1000 nM; on EGFR, 1000 to 10000 nM; against SRC it was 10 to 100 nM; against TEC, at most 10 nM.

In the case of `C[C@@H]1[C@H](NC(=O)c2c[nH]c(C3CC3)n2)CCCN1c1cnc(C(N)=O)c(Nc2cnn(C)c2)n1` [Example D-264, 5-[(2R,3R)-3-(2-cyclopropyl-1H-imidazole-4-amido)-2-methylpiperidin-1-yl]-3-[(1-methyl-1H-pyrazol-4-yl)amino]pyrazine-2-carboxamide], the IC50 on JAK3 was 1000 to 10000 nM; at LCK, 10 to 100 nM; against ITK it was 100 to 1000 nM; against EGFR, 100 to 1000 nM; against SRC, 10 to 100 nM; against TEC, at most 10 nM.

Consider `C[C@@H]1[C@H](NC(=O)c2ccc(C3CC3)cc2)CCCN1c1cnc(C(N)=O)c(Nc2cnn(C3CCNCC3)c2)n1` [Example D-280, 5-[(2R,3R)-3-(4-cyclopropylbenzamido)-2-methylpiperidin-1-yl]-3-{[1-(piperidin-4-yl)-1H-pyrazol-4-yl]amino}pyrazine-2-carboxamide], for which the IC50 was 1000 to 10000 nM on JAK3; below 10 nM at LCK; 10 to 100 nM at ITK; 1000 to 10000 nM against EGFR; at most 10 nM against SRC; at most 10 nM against TEC.

As for `C[C@@H]1[C@H](NC(=O)c2ccc(C3COC3)cc2)CCCN1c1cnc(C(N)=O)c(Nc2cnn(C)c2)n1` [Example D-23, 3-[(1-methyl-1H-pyrazol-4-yl)amino]-5-[(2R,3R)-2-methyl-3-[4-(oxetan-3-yl)benzamido]piperidin-1-yl]pyrazine-2-carboxamide], the IC50 is 100 to 1000 nM at JAK3; 100 to 1000 nM at LCK; 100 to 1000 nM on ITK; 1000 to 10000 nM against EGFR; 10 to 100 nM against SRC; at most 10 nM at TEC.

Consider `Cc1nc2cc(C(=O)N[C@@H]3CCCN(c4cnc(C(N)=O)c(Nc5cnn(C)c5)n4)[C@@H]3C)ccc2[nH]1` [Example D-261, N-[(2R,3R)-1-{5-carbamoyl-6-[(1-methyl-1H-pyrazol-4-yl)amino]pyrazin-2-yl}-2-methylpiperidin-3-yl]-2-methyl-1H-1,3-benzodiazole-5-carboxamide], for which the IC50 on JAK3 was 1000 to 10000 nM; at LCK, 10 to 100 nM; against ITK it was 100 to 1000 nM; against EGFR, 100 to 1000 nM; against SRC, 10 to 100 nM; against TEC, at most 10 nM.

In the case of `C[C@@H]1[C@H](NC(=O)c2ccc3ncsc3c2)CCCN1c1cnc(C(N)=O)c(Nc2cnn(C)c2)n1` [Example D-243, N-[(2R,3R)-1-{5-carbamoyl-6-[(1-methyl-1H-pyrazol-4-yl)amino]pyrazin-2-yl}-2-methylpiperidin-3-yl]-1,3-benzothiazole-6-carboxamide], the 50% inhibitory concentration (IC50) on JAK3 was 100 to 1000 nM; on LCK, 10 to 100 nM; at ITK, 100 to 1000 nM; on EGFR it was 1000 to 10000 nM; against SRC, 10 to 100 nM; against TEC it was at most 10 nM.

`C[C@@H]1[C@H](NC(=O)c2ccc(C(C)(C)O)cc2F)CCCN1c1cnc(C(N)=O)c(Nc2cnn(C)c2)n1` [Example D-302, 5-[(2R,3R)-3-[2-fluoro-4-(2-hydroxypropan-2-yl)benzamido]-2-methylpiperidin-1-yl]-3-[(1-methyl-1H-pyrazol-4-yl)amino]pyrazine-2-carboxamide]: the IC50 at JAK3 is 100 to 1000 nM; on LCK, 10 to 100 nM; at ITK, 10 to 100 nM; on EGFR, 10 to 100 nM; against SRC, 10 to 100 nM; at TEC, at most 10 nM.

For `C[C@@H]1[C@H](NC(=O)c2ccc(C(C)(C)O)cc2)CCCN1c1nnc(C(N)=O)c(Nc2cnn(C)c2)n1` [Example D-298, 3-[(2R,3R)-3-[4-(2-hydroxypropan-2-yl)benzamido]-2-methylpiperidin-1-yl]-5-[(1-methyl-1H-pyrazol-4-yl)amino]-1,2,4-triazine-6-carboxamide], the IC50 at JAK3 is 100 to 1000 nM; on LCK, 10 to 100 nM; on ITK it was 10 to 100 nM; on EGFR, 1000 to 10000 nM; against SRC, 10 to 100 nM; against TEC it was at most 10 nM.

For the origin of these results see patent publication US20210070748A1, “INHIBITORS OF BRUTONS TYROSINE KINASE” (Pharmacyclics LLC, priority 2015, published 2021).
